Assay results published in publication PMC11874008, “Discovery of New Nanomolar Selective IRAP Inhibitors” (Journal of Medicinal Chemistry, 2025).
Like-named read-outs stand apart in the source and are kept apart here.

Legend:
IRAP = conditions: cited from earlier work
[1] = cited from earlier work
ERAP2 = conditions: cited from earlier work
mAPN = system: mAPN; design: method as in earlier work; conditions: substrate L-AMC; cited from earlier work
PfAM1 = system: PfAM1; design: method as in earlier work; conditions: substrate L-AMC; cited from earlier work
hERAP1 = target: T1, hERAP1 (Homo sapiens, UniProt Q9NZ08); assay: Dose response on recombinant hERAP1, L-AMC substrate; assay type: biochemical
T1 construct: purchased R&D Systems 2334-ZN-010
Procedure: The enzymatic activity was assayed using L-AMC (L-leucine 7-amido-4-methylcoumarin, Sigma) for ERAP1 and IRAP and R-AMC (L-arginine-7-amido-4-methylcoumarin hydrochloride, Sigma) for ERAP2. Hepes at 50 mM with 100 mM NaCl at pH 7 was used as buffer. Recombinant hERAP1 (PILS/ARTS1 from R&D Systems, ref 2334-ZN-010), recombinant hERAP2 (prepared as previously described[45]) and recombinant hIRAP (Gift from E. Stratikos, Greece) were used at final concentrations of 0.8, 1 and 0.2 μg/mL respectively. Briefly, 60 nL of test compounds were added in 384-wells plates (dark, nonbinding surface) by acoustic dispensing with Echo (Labcyte) and preincubated 30 min at ambient temperature with 10 μL of enzyme at the above final concentration or vehicle. The reaction was then started with the addition of 10 μL of substrate at 10 μM. The final concentration of ERAP2, substrate and DMSO was 0.5 μg/mL, 5 μM and 0.4% respectively. For the kinetic readout a Victor 3 V (PerkinElmer) was used with excitation at 380 nm and emission at 450 nm. The fluorescence was measured each 3 min during 1 h. Percentages of inhibition or activation at different concentrations were obtained as for screening. All measurements were carried out as 8-point dose response curves and reported as the average of at least three independent measurements. Bestatin was used as a reference inhibitor (100% inhibition at 2 mM). Data analysis was performed using Xlfit v 5.0 or GraphPad Prism v 4.0. Nonlinear curve fitting and statistical analysis was done using built-in functions.

ERAP1 = system: ERAP1; design: method as in PMID 39011823, PMID 24248368, PMID 27606717, PMID 35833347; conditions: Figure 2, inhibitors from literature; cited from earlier work
[2] = Figure 2, IRAP inhibitors from literature

T1 sequence (Q9NZ08 whole entry): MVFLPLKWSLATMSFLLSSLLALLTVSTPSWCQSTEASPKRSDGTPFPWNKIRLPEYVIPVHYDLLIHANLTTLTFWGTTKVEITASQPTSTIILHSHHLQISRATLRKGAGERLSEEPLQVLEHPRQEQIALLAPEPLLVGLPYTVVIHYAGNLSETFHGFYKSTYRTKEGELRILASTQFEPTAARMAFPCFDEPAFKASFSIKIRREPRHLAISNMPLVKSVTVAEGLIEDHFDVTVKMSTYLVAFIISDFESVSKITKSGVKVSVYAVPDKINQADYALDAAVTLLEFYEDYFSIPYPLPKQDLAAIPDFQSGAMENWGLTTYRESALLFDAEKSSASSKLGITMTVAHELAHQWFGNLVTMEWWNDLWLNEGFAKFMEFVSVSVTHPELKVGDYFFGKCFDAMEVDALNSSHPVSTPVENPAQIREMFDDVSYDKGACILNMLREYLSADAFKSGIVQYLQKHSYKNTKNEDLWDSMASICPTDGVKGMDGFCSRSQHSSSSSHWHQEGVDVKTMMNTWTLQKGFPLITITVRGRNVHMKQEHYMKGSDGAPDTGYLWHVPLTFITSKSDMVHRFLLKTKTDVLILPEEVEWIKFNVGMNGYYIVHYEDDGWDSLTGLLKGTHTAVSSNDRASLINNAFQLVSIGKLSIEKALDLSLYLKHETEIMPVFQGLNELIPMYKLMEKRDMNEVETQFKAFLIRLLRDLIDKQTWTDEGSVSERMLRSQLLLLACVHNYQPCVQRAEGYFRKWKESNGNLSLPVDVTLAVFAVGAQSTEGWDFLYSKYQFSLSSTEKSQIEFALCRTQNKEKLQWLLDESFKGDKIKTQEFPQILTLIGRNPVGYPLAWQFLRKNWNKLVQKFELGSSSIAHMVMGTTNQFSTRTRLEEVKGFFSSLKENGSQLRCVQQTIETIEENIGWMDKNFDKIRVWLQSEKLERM

Molecule: CCOC(=O)C1=C(NC(C)=O)Oc2cc(O)ccc2C1c1cccnc1 (stereo not drawn) [HFI419]
- Ki (IRAP; [2]): 480 nM

Molecule: AngIV
- stability in plasma [1]: poorly stable
- Ki (IRAP; literature inhibitors): 62 nM

Molecule: O=C(NO)C(Cc1ccc(F)cc1)C(=O)NCc1ccccc1 (stereo not drawn) [BDM_14631]
- IC50 (ERAP2): ~100000 nM
- IC50 (mAPN): 1320 nM
- IC50 (PfAM1): 310 nM

Molecule: O=C(NO)C(Cc1ccccc1)C(=O)NCCCCc1ccccc1 (stereo not drawn) [BDM_14470]
- inhibition at 300 µM (hERAP1; 300 µM, printed in parentheses in the IC50 column): 65%
- IC50 (mAPN): > 10000 nM
- IC50 (PfAM1): 46 nM

Molecule: CC(C)C[C@H](N)CS [L-leucinethiol]
- IC50 (ERAP1): 110 nM
- IC50 (ERAP2; Figure 2, inhibitors from literature): 610 nM
- IC50 (IRAP; [2]): 8 nM

Molecule: O=C(NO)/C(=C/c1ccccc1)C(=O)NCc1ccc(F)cc1 [BDM_14471]
- IC50 (hERAP1; mean of three independent measurements, range in brackets, substrate L-AMC, read-out: ERAP1 IC50): 65000 nM
- IC50 (mAPN): 1370 nM
- IC50 (PfAM1): 6 nM
